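Each compound was tested at five concentrations against cells in 96-well plates for 48 hours. The concentration for 50% growth inhibition is given as GI50.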 Calls of active or inactive are those of the source. Rule as the data show it: active = GI50 up to about 1.1 µM and inactive = higher.
Columns and labels:
Assay in all cases: inhibition of tumour cell growth, NCI panel, 48 h
A549 = tested on: A549
CAKI-1 = tested on: CAKI-1
DMS-273 = tested on: DMS-273
HCT-15 = tested on: HCT-15
HOP-62 = tested on: HOP-62
HT-29 = tested on: HT-29
KM-20L2 = tested on: KM-20L2
KM12 = tested on: KM12
M14 = tested on: M14
NCI-H226 = tested on: NCI-H226
OVCAR-4 = tested on: OVCAR-4
RXF 393 = tested on: RXF 393
TK-10 = tested on: TK-10
IGROV-1 = tested on: IGROV-1
M19-MEL = tested on: M19-MEL
SF-539 = tested on: SF-539
SR = tested on: SR
A498 = tested on: A498
BT-549 = tested on: BT-549
MCF7 = tested on: MCF7

Compound	GI50 (A549)	GI50 (CAKI-1)	GI50 (DMS-273)	GI50 (HCT-15)	GI50 (HOP-62)	GI50 (HT-29)	GI50 (KM-20L2)	GI50 (KM12)	GI50 (M14)	GI50 (NCI-H226)	GI50 (OVCAR-4)	GI50 (RXF 393)	GI50 (TK-10)	GI50 (IGROV-1)	GI50 (M19-MEL)	GI50 (SF-539)	GI50 (SR)	GI50 (A498)	GI50 (BT-549)	GI50 (MCF7)
O=C(CC1(O)C(=O)Nc2ccc(Br)cc21)c1cccc([N+](=O)[O-])c1 (configuration not stated)	> 100 µM (inactive)	40.9 µM (inactive)	45.8 µM (inactive)	56 µM	49.5 µM (inactive)	32.7 µM (inactive)	74.6 µM (inactive)	42.6 µM (inactive)	48.8 µM (inactive)	26.9 µM (inactive)	23.1 µM (inactive)	23.8 µM (inactive)	> 100 µM (inactive)	–	–	–	–	–	–	–
COc1ccc(-c2cc(O)c3cc(Cl)ccc3n2)cc1	–	–	–	–	> 100 µM (inactive)	> 100 µM (inactive)	> 100 µM (inactive)	91.8 µM (inactive)	> 100 µM (inactive)	> 100 µM (inactive)	> 100 µM (inactive)	> 100 µM (inactive)	> 100 µM (inactive)	> 100 µM (inactive)	> 100 µM (inactive)	> 100 µM (inactive)	> 100 µM (inactive)	–	–	–
Nc1ncn([C@H]2C[C@H](O)[C@@H](CO)O2)c(=O)n1 [DECITABINE]	21.4 µM (inactive)	219 µM (inactive)	–	2.77 µM	111 µM (inactive)	51.3 µM (inactive)	> 375 µM (inactive)	72.6 µM (inactive)	9.59 µM (inactive)	68.7 µM (inactive)	104 µM (inactive)	136 µM (inactive)	46.8 µM (inactive)	102 µM (inactive)	5.86 µM (inactive)	92 µM (inactive)	2.67 µM (inactive)	135 µM (inactive)	13.6 µM (inactive)	74.8 µM (inactive)
[O-]/N=[N+](/[O-])C1CCCCC1=[N+]1CCOCC1 (configuration not stated)	> 100 µM (inactive)	> 100 µM (inactive)	–	–	> 100 µM (inactive)	> 100 µM (inactive)	–	> 100 µM (inactive)	> 100 µM (inactive)	> 100 µM (inactive)	> 100 µM (inactive)	–	> 100 µM (inactive)	–	> 100 µM (inactive)	–	> 100 µM (inactive)	> 100 µM (inactive)	–	–
Cc1ccc(NCC2(/N=C/c3ccccc3)OC(CO)C(O)C2O)cc1 (configuration not stated)	44 µM (inactive)	46.6 µM (inactive)	31.2 µM (inactive)	26.5 µM	12.4 µM (inactive)	35.8 µM (inactive)	20.8 µM (inactive)	67.9 µM (inactive)	40.9 µM (inactive)	> 100 µM (inactive)	60.1 µM (inactive)	–	> 100 µM (inactive)	> 100 µM (inactive)	–	41.7 µM (inactive)	27.1 µM (inactive)	–	–	–
Clc1cccc(N/N=N/c2ccc(-c3nc4ccccc4s3)cc2)c1	82.4 µM (inactive)	53.8 µM (inactive)	–	32.4 µM	> 100 µM (inactive)	> 100 µM (inactive)	–	> 100 µM (inactive)	34.8 µM (inactive)	94.8 µM (inactive)	46.9 µM (inactive)	27.2 µM (inactive)	94.6 µM (inactive)	21.4 µM (inactive)	–	82.8 µM (inactive)	20.9 µM (inactive)	> 100 µM (inactive)	51.2 µM (inactive)	47.5 µM (inactive)
Cc1ccc(S(=O)(=O)NC(CO)C(=O)O)cc1 (configuration not stated)	> 100 µM (inactive)	> 100 µM (inactive)	–	> 100 µM	> 100 µM (inactive)	> 100 µM (inactive)	–	> 100 µM (inactive)	> 100 µM (inactive)	> 100 µM (inactive)	> 100 µM (inactive)	> 100 µM (inactive)	> 100 µM (inactive)	> 100 µM (inactive)	–	> 100 µM (inactive)	> 100 µM (inactive)	> 100 µM (inactive)	> 100 µM (inactive)	> 100 µM (inactive)
N#Cc1c(C#N)c(-c2ccccc2)n(Cc2ccccc2)c1N	> 100 µM (inactive)	> 100 µM (inactive)	–	> 100 µM	51.1 µM (inactive)	> 100 µM (inactive)	–	> 100 µM (inactive)	> 100 µM (inactive)	> 100 µM (inactive)	> 100 µM (inactive)	48.6 µM (inactive)	> 100 µM (inactive)	> 100 µM (inactive)	–	26 µM (inactive)	> 100 µM (inactive)	> 100 µM (inactive)	> 100 µM (inactive)	> 100 µM (inactive)
COc1cc(OCCN(C)C)c2[nH]c(C(=O)N3CC(CCl)c4ccc(N)cc43)cc2c1 (configuration not stated)	0.0377 µM (active)	0.022 µM (active)	–	0.0418 µM	0.0164 µM (active)	< 0.0246 µM (active)	–	0.0324 µM (active)	0.0632 µM (active)	0.0865 µM (active)	0.029 µM (active)	0.0204 µM (active)	0.0973 µM (active)	0.0148 µM (active)	–	0.0748 µM (active)	< 0.01 µM (active)	0.201 µM (active)	0.351 µM (active)	0.0139 µM (active)
O=[N+]([O-])c1nccn1COCCF	> 100 µM (inactive)	> 100 µM (inactive)	–	> 100 µM	> 100 µM (inactive)	> 100 µM (inactive)	> 100 µM (inactive)	> 100 µM (inactive)	> 100 µM (inactive)	> 100 µM (inactive)	> 100 µM (inactive)	–	> 100 µM (inactive)	> 100 µM (inactive)	> 100 µM (inactive)	> 100 µM (inactive)	> 100 µM (inactive)	–	–	–
COc1c(/C=C/C=O)cc2c(c1OC)OCO2	> 100 µM (inactive)	5.21 µM (inactive)	–	15.3 µM	25.5 µM (inactive)	24.2 µM (inactive)	–	12 µM (inactive)	24.2 µM (inactive)	2.96 µM (inactive)	16.6 µM (inactive)	> 100 µM (inactive)	40.4 µM (inactive)	22.8 µM (inactive)	–	35 µM (inactive)	12.9 µM (inactive)	1.21 µM (inactive)	47.3 µM (inactive)	28 µM (inactive)
CC(C)C1C(=O)N(c2c(F)c(F)c(F)c(F)c2F)C(=S)N1CC[S+]([O-])c1ccccc1 (configuration not stated)	18.9 µM (inactive)	5.19 µM (inactive)	–	16.7 µM	23.9 µM (inactive)	14 µM (inactive)	–	16.8 µM (inactive)	15.7 µM (inactive)	20.4 µM (inactive)	16.3 µM (inactive)	17.8 µM (inactive)	26.9 µM (inactive)	16.7 µM (inactive)	–	19.7 µM (inactive)	6.22 µM (inactive)	16.6 µM (inactive)	15.9 µM (inactive)	16.6 µM (inactive)
CC1(C)C=Cc2c(cc3oc4ccc5c(c4c(=O)c3c2O)C=CC(C)(C)O5)O1	> 100 µM (inactive)	> 100 µM (inactive)	–	> 100 µM	> 100 µM (inactive)	> 100 µM (inactive)	–	> 100 µM (inactive)	> 100 µM (inactive)	> 100 µM (inactive)	> 100 µM (inactive)	> 100 µM (inactive)	> 100 µM (inactive)	> 100 µM (inactive)	–	> 100 µM (inactive)	75.3 µM (inactive)	> 100 µM (inactive)	> 100 µM (inactive)	> 100 µM (inactive)
CC(C)=CCc1c2c(c(O)c3c(=O)c4c(oc13)-c1ccc(O)cc1OC4C=C(C)C)C=CC(C)(C)O2 (configuration not stated)	10.8 µM (inactive)	20 µM (inactive)	–	7.5 µM	14.2 µM (inactive)	13 µM (inactive)	–	8.04 µM (inactive)	18 µM (inactive)	21.9 µM (inactive)	11.6 µM (inactive)	7.29 µM (inactive)	14.8 µM (inactive)	14 µM (inactive)	–	17.2 µM (inactive)	5.33 µM (inactive)	19.5 µM (inactive)	13.9 µM (inactive)	13.5 µM (inactive)
Cc1cc(NS(=O)(=O)c2ccc(Nc3c4ccccc4nc4ccc(C(=O)Nc5ccc(S(N)(=O)=O)cc5)cc34)cc2)no1	> 100 µM (inactive)	> 100 µM (inactive)	–	> 100 µM	> 100 µM (inactive)	> 100 µM (inactive)	–	69 µM (inactive)	> 100 µM (inactive)	> 100 µM (inactive)	> 100 µM (inactive)	> 100 µM (inactive)	> 100 µM (inactive)	> 100 µM (inactive)	–	> 100 µM (inactive)	> 100 µM (inactive)	> 100 µM (inactive)	> 100 µM (inactive)	> 100 µM (inactive)
CCCSc1cc(Cl)c(C)cc1S(=O)(=O)n1ccnc1OCCCN(C)C	> 100 µM (inactive)	> 100 µM (inactive)	–	> 100 µM	> 100 µM (inactive)	> 100 µM (inactive)	–	> 100 µM (inactive)	> 100 µM (inactive)	> 100 µM (inactive)	> 100 µM (inactive)	> 100 µM (inactive)	> 100 µM (inactive)	> 100 µM (inactive)	–	> 100 µM (inactive)	> 100 µM (inactive)	> 100 µM (inactive)	> 100 µM (inactive)	> 100 µM (inactive)
O=C(CCc1nnc2s/c(=C\c3ccccc3Cl)c(=O)n12)Nc1cc(Cl)ccc1Cl	> 100 µM (inactive)	> 100 µM (inactive)	–	> 100 µM	> 100 µM (inactive)	> 100 µM (inactive)	–	> 100 µM (inactive)	> 100 µM (inactive)	> 100 µM (inactive)	> 100 µM (inactive)	> 100 µM (inactive)	> 100 µM (inactive)	> 100 µM (inactive)	> 100 µM (inactive)	> 100 µM (inactive)	> 100 µM (inactive)	–	–	–

From ChEMBL document CHEMBL1201862, “PubChem BioAssay data set” (2004)
